Data on 7 compounds can be found in patent US8822509B2, “Pain-relieving compositions and uses therefor” (priority 2006, dated 2014).

“Also recorded” adds a separate entry of the source. Where two headings read alike, the source gives them in different places. Marks after values point to notes of the source that are not given here.

The target in assay [1] is T1, μ-opioid receptors (MOP receptors) (Mus musculus, UniProt P42866).
T1 construct: expressed in transfected cells; host or cells: HEK293
Type of assay: cell-based. Here is the method: Briefly, HEK-MOP cells were pre-incubated with 2% (2-hydroxypropyl)-β-cyclodextrin (βCD) for 1 h at 37° C. to deplete cholesterol from caveloae in the cell membrane. Cells were washed with DMEM and then utilized in the forskolin-stimulated cAMP assay as described above. […] Cells were washed with DMEM and then utilized in the forskolin-stimulated cAMP assay as described above.

In assay [2] the target is T1, μ-opioid receptors (MOP receptors). Format: cell-based. The source holds these as a separate data set.

T1 sequence (P42866 whole entry): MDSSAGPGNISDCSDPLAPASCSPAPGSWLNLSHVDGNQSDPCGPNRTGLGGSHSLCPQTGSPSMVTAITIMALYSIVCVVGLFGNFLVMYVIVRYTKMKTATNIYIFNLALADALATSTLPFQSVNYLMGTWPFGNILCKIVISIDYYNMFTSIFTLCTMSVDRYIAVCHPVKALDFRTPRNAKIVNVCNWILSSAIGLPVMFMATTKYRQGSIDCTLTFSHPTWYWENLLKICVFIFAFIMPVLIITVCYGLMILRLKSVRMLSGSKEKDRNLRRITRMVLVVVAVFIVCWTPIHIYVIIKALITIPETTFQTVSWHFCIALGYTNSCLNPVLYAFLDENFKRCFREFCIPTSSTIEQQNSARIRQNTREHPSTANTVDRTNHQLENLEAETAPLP

As for `Cc1c(-c2ccccc2)no[n+]1[O-]` [Compound 13], the “% of forskolin stimulated cyclic AMP response” value is 40.2% in assay [1] (Conc 10^−3 M); 67.1% in assay [1] (Conc 10^−4 M); 109.4^a % in assay [1] (Conc 10^−5 M); 84.5^a % in assay [1] (Conc 10^−6 M); 78.8% in assay [1] (Conc 10^−7 M); 80.3% in assay [1] (Conc 10^−8 M). For the same compound, the “% of forskolin stimulated cyclic AMP response” value in assay [1] (Conc 10^−9 M) is listed as 94.9%; in assay [1] (Conc 10^−11 M) it was 66.3%; in assay [1] (Conc 10^−13 M) it was 89.6%; in assay [1] (Conc 10^−14 M), 99.4^a %; in assay [1] (Conc 10^−15 M) it was 101.5%; in assay [1] (Conc 10^−16 M), 88.3^a %. Besides, the “% of forskolin stimulated cyclic AMP response” value turned out to be 105.3% in assay [1] (Conc 10^−17 M), 61.2% in assay [1] (Conc 10^−18 M), 106.9% in assay [2] (Conc 10^−10 M) and 108.8% in assay [2] (Conc 10^−12 M).
For `CCc1c(C(=O)O)no[n+]1[O-]` [Compound 8], the “% of forskolin stimulated cyclic AMP response” value in assay [1] (Conc 10^−3 M) amounted to 6.8%; in assay [1] (Conc 10^−4 M) it was 68.2%; in assay [1] (Conc 10^−5 M) it was 90.0%; in assay [1] (Conc 10^−6 M) it was 104.7%; in assay [1] (Conc 10^−7 M) it was 102.9%; in assay [1] (Conc 10^−8 M), 114.3%. Further, the “% of forskolin stimulated cyclic AMP response” value in assay [1] (Conc 10^−9 M) was determined as 107.0%; in assay [1] (Conc 10^−11 M), 88.3%; in assay [1] (Conc 10^−13 M) it was 112.7%; in assay [1] (Conc 10^−14 M) it was 94.8%; in assay [1] (Conc 10^−15 M), 97.6%; in assay [1] (Conc 10^−16 M), 140.5%. Also, the “% of forskolin stimulated cyclic AMP response” value in assay [1] (Conc 10^−17 M) came to 115.0%; in assay [1] (Conc 10^−18 M), 72.8%; in assay [2] (Conc 10^−10 M) it was 79.4%; in assay [2] (Conc 10^−12 M), 128.3%.
With `COc1ccc(-c2no[n+]([O-])c2C)cc1` [Compound 24], the “% of forskolin stimulated cyclic AMP response” value in assay [1] (Conc 10^−3 M) was 71.2%; in assay [1] (Conc 10^−4 M), 106.7^a %; in assay [1] (Conc 10^−5 M), 131.1^a %; in assay [1] (Conc 10^−6 M) it was 56.7%; in assay [1] (Conc 10^−7 M) it was 94.3%; in assay [1] (Conc 10^−8 M), 53.8^a %. Besides, the “% of forskolin stimulated cyclic AMP response” value in assay [1] (Conc 10^−9 M) is 132.4%; in assay [1] (Conc 10^−11 M) it was 79.4%; in assay [1] (Conc 10^−13 M) it was 82.3%; in assay [1] (Conc 10^−14 M), 75.1%; in assay [1] (Conc 10^−15 M), 97.0^a %; in assay [1] (Conc 10^−16 M), 88.0%. The “% of forskolin stimulated cyclic AMP response” value in assay [1] (Conc 10^−17 M) came out at 70.0%; in assay [1] (Conc 10^−18 M), 70.0%; in assay [2] (Conc 10^−10 M), 60.2%; in assay [2] (Conc 10^−12 M), 90.1%.
For `Cc1c(-c2ccc(F)cc2)no[n+]1[O-]` [Compound 23], the “% of forskolin stimulated cyclic AMP response” value in assay [1] (Conc 10^−3 M) was 46.6%; in assay [1] (Conc 10^−4 M), 121.2%; in assay [1] (Conc 10^−5 M), 66.2%; in assay [1] (Conc 10^−6 M), 90.0%; in assay [1] (Conc 10^−7 M) it was 89.0%; in assay [1] (Conc 10^−8 M), 98.2%. For the same compound, the “% of forskolin stimulated cyclic AMP response” value in assay [1] (Conc 10^−9 M) was 64.0%; in assay [1] (Conc 10^−11 M), 75.7%; in assay [1] (Conc 10^−13 M), 87.6%; in assay [1] (Conc 10^−14 M), 79.2%; in assay [1] (Conc 10^−15 M), 80.4%; in assay [1] (Conc 10^−16 M), 77.1%. The “% of forskolin stimulated cyclic AMP response” value in assay [1] (Conc 10^−17 M) is recorded as 73.6%; in assay [1] (Conc 10^−18 M), 80.2%; in assay [2] (Conc 10^−10 M), 56.5%; in assay [2] (Conc 10^−12 M), 74.7%.
`[O-][n+]1onc(-c2ccc(F)cc2)c1-c1ccc(F)cc1` [Compound 21]: the “% of forskolin stimulated cyclic AMP response” value in assay [1] (Conc 10^−3 M) is reported as 7.1%; in assay [1] (Conc 10^−4 M) it was 42.1%; in assay [1] (Conc 10^−5 M), 63.5%; in assay [1] (Conc 10^−6 M), 53.0%; in assay [1] (Conc 10^−7 M), 47.3%; in assay [1] (Conc 10^−8 M), 57.5%. In addition, the “% of forskolin stimulated cyclic AMP response” value worked out at 46.5% in assay [1] (Conc 10^−9 M); 29.9% in assay [1] (Conc 10^−11 M); 61.5% in assay [1] (Conc 10^−13 M); 59.7% in assay [1] (Conc 10^−14 M); 64.0% in assay [1] (Conc 10^−15 M); 67.7% in assay [1] (Conc 10^−16 M). The “% of forskolin stimulated cyclic AMP response” value in assay [1] (Conc 10^−17 M) came out at 49.1%; in assay [1] (Conc 10^−18 M), 38.7%; in assay [2] (Conc 10^−10 M), 38.4%; in assay [2] (Conc 10^−12 M) it was 42.9%.
With `O=Cc1c(-c2ccccc2)no[n+]1[O-]` [Compound 14], the “% of forskolin stimulated cyclic AMP response” value is 8.5% in assay [1] (Conc 10^−3 M); 40.7^a % in assay [1] (Conc 10^−4 M); 51.0^a % in assay [1] (Conc 10^−5 M); 110.6^a % in assay [1] (Conc 10^−6 M); 121.5% in assay [1] (Conc 10^−7 M); 113.2^a % in assay [1] (Conc 10^−8 M). Moreover, the “% of forskolin stimulated cyclic AMP response” value is reported as 107.4% in assay [1] (Conc 10^−9 M); 62.7% in assay [1] (Conc 10^−11 M); 94.2% in assay [1] (Conc 10^−13 M); 103.4^a % in assay [1] (Conc 10^−14 M); 103.8% in assay [1] (Conc 10^−15 M); 129.8% in assay [1] (Conc 10^−16 M). Further, the “% of forskolin stimulated cyclic AMP response” value in assay [1] (Conc 10^−17 M) is listed as 120.5%; in assay [1] (Conc 10^−18 M) it was 95.1%; in assay [2] (Conc 10^−10 M) it was 69.5%; in assay [2] (Conc 10^−12 M), 92.8%.
Consider `Nc1nc2c(nc(Br)n2[C@@H]2O[C@@H]3COP(=O)(O)O[C@H]3[C@H]2O)c(=O)[nH]1` [Compound 8-Br-cGMP, 8-Br-cGMP, reference compound], for which, in assay [2] (MOP-transfected HEK293 (FIG. 11)), the “effect on forskolin-stimulated cAMP responses” value is “did not inhibit forskolin-stimulated cAMP responses; also recorded: lack of effects”.
